{"source": "patent US20200147070A1", "about": "“INDUCING PHOSPHOLIPIDOSIS FOR ENHANCING THERAPEUTIC EFFICACY” (Nextcea Inc., priority 2017, published 2020)", "key": {"cathepsin-B": {"biological_target": "T1, cathepsin-B (Rattus norvegicus, UniProt P00787)", "T1 construct": "from tissue; host or cells: liver and spleen homogenates of Sprague-Dawley rats", "T1 sequence (P00787 80-333)": "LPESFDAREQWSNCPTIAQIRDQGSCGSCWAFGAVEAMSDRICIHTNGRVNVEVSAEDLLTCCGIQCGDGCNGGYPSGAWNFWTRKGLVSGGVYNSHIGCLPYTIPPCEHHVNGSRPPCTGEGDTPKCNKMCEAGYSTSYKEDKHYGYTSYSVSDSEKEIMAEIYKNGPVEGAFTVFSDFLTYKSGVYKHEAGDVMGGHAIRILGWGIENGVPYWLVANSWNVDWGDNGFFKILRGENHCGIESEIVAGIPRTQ", "assay": "Fluorescence-based cathepsin-B activity assay (RR-AFC substrate) in liver and spleen homogenates of treated rats", "type": "in vivo, Sprague-Dawley rats", "description": "Cathepsin-B is a lysosomal protease that plays an important role in intracellular proteolysis. […] Liver and spleen homogenates were analyzed using a fluorescence-based assay that utilized the preferred cathepsin-B substrate sequence RR labeled with amino-4-trifluoromethyl coumarin (AFC). Samples that contain cathepsin-B cleave the synthetic substrate RR-AFC to release free AFC."}, "[1]": {"settings": "amiodarone 150 mg/kg/day co-administered with fluoxetine 10 mg/kg/day, 2 weeks, vs amiodarone alone", "from_the_text": "Heart, liver, kidney and lung tissues were collected at necropsy at 2 weeks."}, "di-22:6-BMP": {"test_system": "di-22:6-BMP", "assay": "PL biomarker di-22:6-BMP in tissues and urine", "type": "in vivo, Sprague-Dawley rats", "settings": "2 weeks; for PL biomarker di-22:6-BMP in tissues (PL induced in both treatment groups): amiodarone 150 mg/kg/day alone or co-administered with fluoxetine 10 mg/kg/day, heart, liver, kidney, lung; for di-22:6-BMP biomarker in various tissues (PL induced): fluoxetine 10 mg/kg/day alone or co-administered with amiodarone 150 mg/kg/day"}, "liver, kidney, and heart": {"test_system": "liver, kidney, and heart", "assay": "Electron microscopic examination of tissue sections for phospholipidosis, 2-week repeat dose study", "type": "in vivo, Sprague-Dawley rats", "settings": "co-administered bedaquiline 60 mg/kg/day and citalopram 70 mg/kg/day, 2 weeks", "description": "FIG. 3 is a set of electron micrographs depicting the accumulation of lysosomal myeloid bodies, indicative of PL, in rat tissues. Sprague-Dawley rats received once daily oral (PO) co-administration of bedaquiline (60 mg/kg/day) and citalopram (70 mg/kg/day) for 2 weeks.\nSprague-Dawley rats were co-administered bedaquiline (60 mg/kg/day) and citalopram (70 mg/kg/day) in a 2-week repeat dose study. Tissue sections (liver, kidney, and heart) were collected at 2 weeks for electron microscopic examination and PL biomarker/proteomic evaluation."}, "cathepsin B1": {"biological_target": "cathepsin B1 (Rattus norvegicus, UniProt P00787)", "sequence (P00787 80-333)": "as above", "settings": "Wibo and Poole 1974; cited from earlier work"}, "[2]": {"assay": "Fluoxetine tissue concentrations, alone or co-administered with amiodarone", "type": "in vivo, Sprague-Dawley rats", "settings": "fluoxetine 10 mg/kg/day co-administered with amiodarone 150 mg/kg/day, 2 weeks; tissues including brain", "text": "FIG. 8 is a set of graphs showing that PL-induction increased drug tissue concentrations to enhance in vivo drug efficacy.\nPL was induced as indicated by an increase in the di-22:6-BMP biomarker in various tissues."}}}
{"smiles": "CCCCc1oc2ccccc2c1C(=O)c1cc(I)c(OCCN(CC)CC)c(I)c1", "note": "[amiodarone]", "values": [{"measurement": "activity of cathepsin B in rat liver and spleen", "setting": "cathepsin-B; PL induced by amiodarone", "value": "slowed"}, {"measurement": "levels of free AFC in tissues compared to controls (cathepsin-B activity)", "setting": "cathepsin-B; amiodarone 150 mg/kg/day, 2 weeks, liver and spleen homogenates", "value": "lower"}, {"measurement": "concentration of amiodarone in the lung tissue", "setting": "[1]", "value": "decreased"}, {"measurement": "PL biomarker di-22:6-BMP in tissues (PL induced in both treatment groups)", "setting": "di-22:6-BMP", "value": "increase"}, {"measurement": "di-22:6-BMP biomarker in various tissues (PL induced)", "setting": "di-22:6-BMP", "value": "increase"}]}
{"smiles": "COc1nc2ccc(Br)cc2cc1[C@@H](c1ccccc1)[C@@](O)(CCN(C)C)c1cccc2ccccc12", "note": "[bedaquiline]", "values": [{"measurement": "multi-lamellar lysosomal inclusions and electron dense deposits (indicative of drug-induced PL)", "setting": "liver, kidney, and heart", "value": "treatment-dependent increase"}, {"measurement": "biomarker di-22:6-BMP in rat tissues and urine", "setting": "di-22:6-BMP; co-administered bedaquiline 60 mg/kg/day and citalopram 70 mg/kg/day", "value": "increase"}]}
{"smiles": "CCN(CC)CCCC(C)Nc1ccnc2cc(Cl)ccc12", "note": "(centres unmarked) [chloroquine]", "values": [{"measurement": "cathepsin B1 activities", "setting": "cathepsin B1", "value": "inhibited"}]}
{"smiles": "CNCCC(Oc1ccc(C(F)(F)F)cc1)c1ccccc1", "note": "(centres unmarked) [fluoxetine]", "values": [{"measurement": "fluoxetine concentrations in tissues, compared to fluoxetine alone", "setting": "[2]", "value": "increased"}, {"measurement": "PL biomarker di-22:6-BMP in tissues (PL induced in both treatment groups)", "setting": "di-22:6-BMP", "value": "increase"}, {"measurement": "di-22:6-BMP biomarker in various tissues (PL induced)", "setting": "di-22:6-BMP", "value": "increase"}]}
